Data published in patent US20130324522A1, “INSECT ODORANT RECEPTOR ANTAGONISTS” (THE ROCKEFELLER UNIVERSITY, priority 2010, published 2013).
Like-named read-outs stand apart in the source and are kept apart here.

Tests used:
TRP channel (TRPM8) = target: T1, TRP channel (TRPM8) (Mus musculus, UniProt Q8R4D5); test: Ca2+-imaging of stable HEK293T cell line TRPM8; assay type: cell-based; details: HEK-293T; compound applied at 4 μM; read-out: Percent Inhibition TRPM8
T1 construct: Full-length cDNAs for mosquito (Anopheles gambiae) odorant receptor (OR1, OR2, OR7, OR8, OR28), and fly (Drosophila melanogaster) odorant receptor (Or47a, Or83b), mouse TRP channel (TRPM8); expressed in transfected cells
Method in brief: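 Fluorescence calcium imaging on stable HEK293T cells expressing mosquito OR paired with Orco-type OR7, or mouse TRPM8. Test compounds are premixed into HBSS odorant solutions and applied to Ca-4-loaded cells; emission at 525 nm (excitation 485 nm) reports Ca2+ influx.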

OR28/OR7 = OR28/OR7 (Anopheles gambiae, UniProt A0A1S4GFY3+Q7QCC7); test: Ca2+-imaging of stable HEK293T cell line OR28/OR7; assay type: cell-based; details: for inhibition at 4 µM: HEK-293T, read-out: Percent Inhibition OR28 OR7
Protocol: Full-length cDNAs for mosquito (Anopheles gambiae) odorant receptor (OR1, OR2, OR7, OR8, OR28), and fly (Drosophila melanogaster) odorant receptor (Or47a, Or83b), mouse TRP channel (TRPM8), and mouse serotonin receptor (5HT3) were obtained and subcloned into mammalian expression vectors. The following mammalian expression vectors were used:
Stable cell lines OR1/OR7, OR2/OR7, OR8/OR7, OR10/OR7, OR28/OR7 and TRPM8 were generated from HEK293T cells. HEK293T-based cell lines were cultured in DMEM supplemented with these additional antibiotics: 6 μg/mL blasticidin and 1 μg/mL puromycin, with the exception of the TRPM8 cell lines, which was cultured in DMEM supplemented with 1 μg/mL puromycin.
Cells were trypsinized and split into 35 mm dishes one day before transfection. Confluent cells (60-70%) in 35 mm dishes were transfected with 1 μg of insect OR(X) plasmids in pME18s-bla and 1 μg of OR7-pME18s-puro using lipofectamine 2000. For Anopheles odorant receptors, two plasmids were co-transfected into HEK cells: the ligand-specific receptor (OR1, OR2, OR8, OR28) and the corresponding olfactory co-receptor: OR7. Cell lines containing TRPM8 were transfected with single plasmid.
Stable cell lines were cultured in 10 cm dishes, and confluent cells (70-80%) were trypsinized. 10,000 cells/20 μL were transferred into each well of 384-well plates coated with poly-D-lysine, and cultured for 2 days. For Flip-In T-Rex cells (cell lines expressing Or47a/Or83b and 5HT3), 5 μL of tetracycline (5 μg/mL) were added 1 day before the assay. 20 μL of Ca-4 dye was loaded into each well for 1.5 hr at room temperature in the dark, and the dye-loaded plates were subjected to Ca^2+-imaging using a Hamamatsu FDSS6000 real time fluorescence plate reader. Odorant solutions (9× final concentration) were prepared by dissolving 1M stock solutions into Hank's Buffered Salt Solution (HBSS), and 30 μL of odor solution was transferred to each well in 384-well plates.
Compounds ([…] in DMSO) were stored in 384-well plates, and last two columns (32 wells total) contained only DMSO. 200 nL of small compounds were transferred into the odorant plates before the assay using the Perkin-Elmer Janus workstation. The odorant plates were spun down to remove air bubbles, and placed on the FDSS6000 plate loader, and 5 μL of odorant solution was applied to the cell plate on the FDSS6000. Ca^2+ increase was monitored with fluorescence at 525 nm by excitation at 485 nm.

Chain of OR28/OR7 (A0A1S4GFY3 entry or part of it): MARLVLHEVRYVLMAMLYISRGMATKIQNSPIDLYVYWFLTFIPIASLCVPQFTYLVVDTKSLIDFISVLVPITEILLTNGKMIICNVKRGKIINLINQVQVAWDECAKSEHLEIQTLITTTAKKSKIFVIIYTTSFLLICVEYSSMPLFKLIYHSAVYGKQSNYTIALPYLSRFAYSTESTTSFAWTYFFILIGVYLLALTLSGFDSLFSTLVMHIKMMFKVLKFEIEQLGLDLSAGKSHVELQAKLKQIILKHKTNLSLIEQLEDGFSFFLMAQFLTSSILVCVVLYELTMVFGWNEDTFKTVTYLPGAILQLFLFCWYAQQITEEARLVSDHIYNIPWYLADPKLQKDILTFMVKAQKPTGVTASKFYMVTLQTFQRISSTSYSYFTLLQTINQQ
Chain of OR28/OR7 (Q7QCC7 whole entry): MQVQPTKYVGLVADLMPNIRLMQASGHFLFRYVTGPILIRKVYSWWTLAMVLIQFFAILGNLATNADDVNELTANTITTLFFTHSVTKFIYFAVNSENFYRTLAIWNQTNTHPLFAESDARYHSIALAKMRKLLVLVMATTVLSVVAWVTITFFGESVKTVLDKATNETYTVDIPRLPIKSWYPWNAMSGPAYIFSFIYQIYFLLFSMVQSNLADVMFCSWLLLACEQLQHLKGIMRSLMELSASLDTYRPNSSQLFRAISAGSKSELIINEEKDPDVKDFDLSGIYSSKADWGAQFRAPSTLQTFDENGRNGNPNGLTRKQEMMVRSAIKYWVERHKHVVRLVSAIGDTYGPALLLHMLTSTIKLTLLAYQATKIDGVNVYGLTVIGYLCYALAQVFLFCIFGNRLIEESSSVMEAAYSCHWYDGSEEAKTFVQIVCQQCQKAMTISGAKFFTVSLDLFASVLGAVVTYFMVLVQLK
T1 sequence (Q8R4D5 whole entry): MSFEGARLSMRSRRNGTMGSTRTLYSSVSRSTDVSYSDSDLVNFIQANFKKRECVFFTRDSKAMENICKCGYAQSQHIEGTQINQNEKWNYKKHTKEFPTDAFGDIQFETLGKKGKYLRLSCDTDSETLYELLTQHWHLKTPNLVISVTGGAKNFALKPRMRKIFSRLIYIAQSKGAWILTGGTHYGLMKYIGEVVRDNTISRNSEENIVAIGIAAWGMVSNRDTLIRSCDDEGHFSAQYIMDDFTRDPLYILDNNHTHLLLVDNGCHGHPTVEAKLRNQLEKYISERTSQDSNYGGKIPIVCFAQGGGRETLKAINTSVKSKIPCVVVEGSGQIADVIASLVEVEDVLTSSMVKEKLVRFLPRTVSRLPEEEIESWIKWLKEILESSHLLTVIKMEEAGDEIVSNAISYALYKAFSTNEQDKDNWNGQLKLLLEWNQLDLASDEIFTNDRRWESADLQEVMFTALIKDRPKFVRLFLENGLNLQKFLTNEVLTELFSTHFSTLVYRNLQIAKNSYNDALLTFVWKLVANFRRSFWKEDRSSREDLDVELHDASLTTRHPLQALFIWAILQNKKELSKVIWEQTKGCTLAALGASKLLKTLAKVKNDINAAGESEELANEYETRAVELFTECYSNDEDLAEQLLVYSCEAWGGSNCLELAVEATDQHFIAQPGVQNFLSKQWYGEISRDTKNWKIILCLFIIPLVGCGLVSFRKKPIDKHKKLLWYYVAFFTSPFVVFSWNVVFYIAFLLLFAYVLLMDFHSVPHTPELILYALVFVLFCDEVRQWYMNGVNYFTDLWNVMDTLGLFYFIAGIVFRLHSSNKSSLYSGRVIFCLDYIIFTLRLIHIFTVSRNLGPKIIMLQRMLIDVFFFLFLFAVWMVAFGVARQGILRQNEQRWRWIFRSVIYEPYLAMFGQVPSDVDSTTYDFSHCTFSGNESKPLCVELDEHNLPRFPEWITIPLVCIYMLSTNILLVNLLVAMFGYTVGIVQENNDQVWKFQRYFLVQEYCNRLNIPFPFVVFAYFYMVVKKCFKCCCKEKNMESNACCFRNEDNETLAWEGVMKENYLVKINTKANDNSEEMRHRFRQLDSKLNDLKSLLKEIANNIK

SMILES | inhibition at 4 µM (TRP channel (TRPM8)) | inhibition at 4 µM (OR28/OR7; compound applied at 4 μM) | IC50 (OR28/OR7; Table B, read-out: IC50 OR28) | IC50 (OR28/OR7) | inhibition at 4 µM (OR28/OR7)
COCCN(Cc1cc(Cl)ccc1OS(=O)(=O)c1ccc(F)cc1)C(=O)C1CCC1 [RU-0035287] | < 25% | > 75% | < 100 nM | – | –
COc1nc(OCC#N)nc(N2CCCCC2)n1 [RU-0006256] | 26 to 50% | > 75% | < 100 nM | – | –
CN(Cc1ccccc1)C(=O)CCC1CCN(C(=O)CCOc2ccccc2)CC1 [RU-0028727] | 26 to 50% | > 75% | < 100 nM | – | –
CCOc1ccccc1C(=O)NNC(=O)COc1cc(C)cc(C)c1 [RU-0023245] | < 25% | > 75% | > 1000 nM | – | –
COc1ccc(C(=O)c2ccccc2)c(O)c1O [RU-0001617] | < 25% | 51 to 74% | > 1000 nM | – | –
CCOC(=O)C(c1cccc(OC)c1)C1C=CC(NC(=O)c2cccs2)C1 (stereo not shown) [RU-0074560] | < 25% | 51 to 74% | > 1000 nM | – | –
CN(C)c1nc(N(C)C)nc(N(C)C)n1 [RU-0000619] | < 25% | 51 to 74% | < 100 nM | – | –
C=C[C@@](C)(O)CCC1C(=C)CCC2[C@@](C)(CO)CCC[C@]12C (stereo partly shown) [RU-0001327] | < 25% | > 75% | > 1000 nM | – | –
COc1ccc(N2CCN(C(=O)C3CC=CCC3C(=O)NC(c3ccccc3)c3ccccn3)CC2)cc1 (stereo not shown) [RU-0026507] | < 25% | > 75% | > 1000 nM | – | –
CCOC(=O)C(c1ccc(OC)c(OC)c1)C1C=CC(NC(=O)c2ccc3c(c2)OCO3)C1 (stereo not shown) [RU-0049030] | < 25% | > 75% | < 100 nM | – | –
Cc1ccc(-n2nc(C)c(CCC(=O)N3CCc4ccccc4C3)c2C)cc1Cl [RU-0026074] | 26 to 50% | > 75% | – | – | –
COc1ccc(-c2nnc(SCc3ccc(C#N)cc3)n2-c2ccc(C)cc2)cc1 [RU-0046426] | < 25% | > 75% | > 1000 nM | – | –
COc1nc(NC(C)C)nc(NC(C)C)n1 [RU-0001534] | < 25% | – | – | < 100 nM | > 75%
COCCCN(CC(=O)N1CCc2sccc2C1COc1cccc(OC)c1)C(=O)Cc1ccccc1 (stereo not shown) [RU-0036264] | 26 to 50% | 51 to 74% | 100 to 1000 nM | – | –
Cc1cc(C)c2c(c1C(=O)N1CCC3(CC1)C(=O)NCN3c1ccccc1)CC(C)(C)C2=O [RU-0025771] | 26 to 50% | > 75% | – | – | –
CC(NCc1ccccc1)c1nc2ccccc2c(=O)n1-c1ccc(Cl)cc1 (stereo not shown) [RU-0072535] | < 25% | > 75% | < 100 nM | – | –
CCCCc1nc(CN2CCc3c([nH]c4ccccc34)C2c2cccc(OC)c2OC)c[nH]1 (stereo not shown) [RU-0031879] | 26 to 50% | > 75% | < 100 nM | – | –
COCCCN(CC(=O)N1CCc2sccc2C1c1ccc(OC)cc1)C(=O)C(C)(C)CCl (stereo not shown) [RU-0069950] | < 25% | > 75% | < 100 nM | – | –
COc1ccc(N2CCN(C(=O)C3CC=CCC3C(=O)NCCCCc3ccccc3)CC2)cc1 (stereo not shown) [RU-0026167] | 26 to 50% | 51 to 74% | < 100 nM | – | –
Cc1ccc(CN(Cc2ccc(F)cc2)C(=O)CN(C(=O)NC(C)(C)C)C2CC2)s1 [RU-0052360] | 26 to 50% | > 75% | 100 to 1000 nM | – | –
COc1cc(OC)cc(C2NC(=O)N(C)C3=C2C(=O)N(C2CCCCC2)C3)c1 (stereo not shown) [RU-0047750] | < 25% | > 75% | > 1000 nM | – | –
COCCCN(CC(=O)N1CCc2sccc2C1COc1cccc(OC)c1)C(=O)c1ccccc1OC (stereo not shown) [RU-0036294] | 26 to 50% | > 75% | 100 to 1000 nM | – | –
CC(NC(=O)c1cc2n(n1)CCN(Cc1c(Cl)cccc1Cl)C2=O)c1ccccc1 (stereo not shown) [RU-0045115] | < 25% | > 75% | < 100 nM | – | –
COc1ccccc1N1CCN(C(=O)c2cc3n(n2)CCN(Cc2c(F)cccc2Cl)C3=O)CC1 [RU-0043595] | < 25% | > 75% | < 100 nM | – | –
CCN(CC)C(=O)Oc1ccc2c(ccn2Cc2cccc(C)c2)c1NC(=O)[C@H](C)OC(C)=O [RU-0075468] | < 25% | > 75% | < 100 nM | – | –
COCCNC(=O)c1ccc(CSc2nnc(-c3ccc(C)cc3)n2-c2ccccc2F)cc1 [RU-0051652] | < 25% | 51 to 74% | > 1000 nM | – | –
O=C1CN(S(=O)(=O)c2c(F)cc(F)cc2F)CC2c3cccc(F)c3CCN12 (stereo not shown) [RU-0076832] | < 25% | > 75% | < 100 nM | – | –
COC(=O)C(Cc1ccccc1)NC(=O)C1CC1(c1ccccc1)c1ccccc1 (stereo not shown) [RU-0028029] | 26 to 50% | 51 to 74% | < 100 nM | – | –
CCOCCCN(CC(=O)N(Cc1ccc2c(c1)OCO2)Cc1sccc1C)C(=O)NC(C)(C)C [RU-0052340] | < 25% | > 75% | < 100 nM | – | –
Cc1ccc(CN(CCc2ccccc2)C(=O)CN(C(=O)NC(C)(C)C)C(C)C)o1 [RU-0072008] | < 25% | > 75% | < 100 nM | – | –
